Test results published in patent US20130133245A1, “OXYGENATE ADDITIVE FOR INTERNAL COMBUSTION ENGINE FUEL, FUEL COMPOSITION COMPRISING THE SAME AND IMPROVED PROCESS FOR PRODUCING HIGHLY METHYLATED GLYCEROL ETHERS” (priority 2011, published 2013).
One block for each compound: values may come before it.

Legend:
[1] = Density of oxygenate additive (main properties comparison)
[2] = Solubility / miscibility in diesel fuel; format: physicochemical
[3] = Solubility in gasoline or aviation turbine fuel; format: physicochemical

Flash point (Flash point): 70 °C
Heat of combustion (Heat of combustion): -2.52e+07 J/kg
Lower heating value (Lower heating value): 24.5 kJ/g
Lower flammability limit (Lower flammability limit): 1.2 % vol
Density [1]: 937 kg/m^3
Compound: COCCOCCOC [DGM, diethylene glycol dimethyl ether]

solubility in diesel fuel ([2]; diesel fuel): ~100%
dissolution in gasoline or aviation turbine fuel [3]: completely dissolved
Compound: COCC(COC)OC [GTME, glycerol trimethyl ether]

miscibility with diesel fuel ([2]; too much amount mixed with diesel fuel): phase separation
Compound: glycerol dimethyl ethers [GDMEs]
